Laboratory results as given in patent US20220242958A1, “BISPECIFIC NANOBODIES” (Ablynx N.V., priority 2013, published 2022).

Key:
hEGFR ECD = molecular target: T1, hEGFR ECD (Homo sapiens, UniProt P00533); experiment: SPR (Biacore T100) on hEGFR extracellular domain; format: binding
T1 construct: directly immobilized hEGFR extracellular domain (Sino Biological, #10001-H08H); purchased Sino Biological 10001-H08H

[1] = test system: HIV-1 NL4.3 AMD-3100 res. variant; format: cell-based; conditions: versus wild-type NL4.3
[2] = test system: dual-tropic (R5/X4) HIV-1 HE strain; experiment: HIV infection assay, MT-4 cells + HIV-1 HE; format: cell-based; conditions: Human immunodeficiency virus 1, MT4
Source text: (§1) Viral strains used were the X4 HIV-1 clone NL4.3, R5 HIV-1 strain BaL, or the R5/X4 HIV-1 HE strain. Infection was done in MT-4 cells or phytohemagglutin-stimulated PBMCs from different healthy donors. The CXCR4-using (X4) HIV-1 clone NL4.3 was obtained from the National Institutes of Health NIAID AIDS Reagent program (Bethesda, Md.), the CCR5-using (R5) HIV-1 strain BaL was obtained from the Medical Research Council AIDS reagent project (Herts, UK). The dual-tropic (R5/X4) HIV-1 HE strain was initially isolated from a patient at the University Hospital in Leuven. The MT-4 cells were seeded out in 96-well plate and the U87 cells in 24-well plates. Nanobodies were added at different concentrations together with HIV-1 and the plates were maintained at 37° C. in 10% CO2. Cytopathic effect induced by the virus was monitored by daily microscopic evaluation of the virus-infected cell cultures. […] The absorbance was measured spectrophotometrically at 490 nm with a 96-well plate reader (Molecular Devices, Sunnyvale, Calif.) and compared with four cell control replicates (cells without virus and drugs) and four virus control wells (virus-infected cells without drugs). The IC50, i.e., the drug concentration that inhibits HIV-induced cell death by 50%, was calculated for each polypeptide from the dose-response curve. […]

[3] = test system: X4 HIV-1 clone NL4.3 (PBMCs); experiment: microbe, parasite or virus in culture; format: cell-based; conditions: Human immunodeficiency virus 1, PBMC, read-out: IC50 (nM) PBMC + NL 4.3(X4)
HIV-2 ROD = experiment: HIV infection assay, MT-4 cells + HIV-2 ROD; format: cell-based; conditions: Human immunodeficiency virus 2, MT4
Source text: as §1

[4] = test system: X4 HIV-1 clone NL4.3 (U87 cells); experiment: HIV-1 infection assay, U87 cells + NL4.3; format: cell-based; conditions: Human immunodeficiency virus 1, U-87 MG; n = 3; read-out: IC50 (nM) U87 + NL 4.3 (X4)

Compound	hEGFR ECD ka (hEGFR ECD) [M⁻¹ s⁻¹]	hEGFR ECD kd (hEGFR ECD) [s⁻¹]	loss in potency towards AMD3100 resistant virus [1] [fold]	IC50 [2] [nM]	IC50 [3] [nM]	IC50 (HIV-2 ROD) [nM]	IC50 [4] [nM]
EGFR#32: EGFR Nanobody variant 7C12(A1E, E100fS, Q108L)	270000	0.23	–	–	–	–	–
c1cc(CN2CCCNCCNCCCNCC2)ccc1CN1CCCNCCNCCCNCC1 [AMD3100, reference compound]	–	–	~100	3.9	1.91	21.1	10
EGFR#11: EGFR Nanobody variant 7C12 (A1E, Q108L)	220000	0.037	–	–	–	–	–
